According to article PMC5021161 (Environmental and Molecular Mutagenesis, 2016):
Read-outs that look alike come from different tables or passages of the source.

Key:
[1] = rats and mice; ref NTP, 1993; cited from earlier work
TK6 cells [2] = conditions: for % MN: 5% ethanol S9, 4 hr + 20 hr recovery
bacteria = conditions: ref NTP, 1993; cited from earlier work
[3] = system: TGx‐28.65 biomarker genes; conditions: 5% ethanol S9, 4 hr + 3-4 hr recovery
[4] = 2012, cited from earlier work
ATF3 = type: cell-based, human; conditions: 5% ethanol S9, 4 hr + 3-4 hr recovery
TK6 cells [5] = conditions: 5% ethanol S9, 4 hr + 20 hr recovery
[6] = B6C3F1 mouse bone marrow cells; ref NTP, 1993; cited from earlier work
CDKN1A = type: cell-based, human; conditions: 5% ethanol S9, 4 hr + 3-4 hr recovery
GADD45A = type: cell-based, human; conditions: 5% ethanol S9, 4 hr + 3-4 hr recovery
TK6 cells [7] = conditions: for % Relative Survival: 5% ethanol S9, 4 hr + 20 hr recovery
mammalian cells = conditions: Chinese hamster ovary cells; ref NTP, 1993; cited from earlier work

## c1ccoc1 [Furan]
[1]
  carcinogenicity: causes liver cancer
TK6 cells [2]; 2 mM
  % MN: 1.57%
TK6 cells [2]; 3 mM
  % MN: 1.77%
TK6 cells [2]; 5 mM
  % MN: 2.78%
TK6 cells [2]; 5% ethanol‐induced S9
  clastogenicity (analysis of MN): clastogenic at high concentrations
TK6 cells [2]; for at least one concentration, definitive study
  statistically significant % MN increase relative to controls: over twofold
bacteria
  Ames test: negative
[3]; 2 mM
  Dendogram TGx‐28.65: +
  NSC TGx‐28.65: +
  PCA TGx‐28.65: +
[3]; 3 mM
  Dendogram TGx‐28.65: +
  NSC TGx‐28.65: +
  PCA TGx‐28.65: +
[3]; 5 mM
  Dendogram TGx‐28.65: +
  NSC TGx‐28.65: +
  PCA TGx‐28.65: +
[4]; Big Blue rats, ref McDaniel et al.
  liver DNA strand breaks, comet assay: DNA damage at high doses
[4]; F344 rats at cancer‐causing doses, ref Ding et al.
  DNA strand breaks by the comet assay: near‐linear dose‐dependent increase in DNA strand breaks
ATF3; 2 mM
  ATF3 fold change vs vehicle control (+S9): 2.3 fold change
ATF3; 3 mM
  ATF3 fold change vs vehicle control (+S9): 3.1 fold change
ATF3; 5 mM
  ATF3 fold change vs vehicle control (+S9): 5.4 fold change
TK6 cells [5]; 2 mM
  % Apoptotic cells: 7.07%
TK6 cells [5]; 3 mM
  % Apoptotic cells: 8.40%
TK6 cells [5]; 5 mM
  % Apoptotic cells: 15.26%
[6]
  chromosomal aberrations: causes chromosomal aberrations
CDKN1A; 2 mM
  CDKN1A fold change vs vehicle control (+S9): 3.2 fold change
CDKN1A; 3 mM
  CDKN1A fold change vs vehicle control (+S9): 5.3 fold change
CDKN1A; 5 mM
  CDKN1A fold change vs vehicle control (+S9): 9.8 fold change
GADD45A; 2 mM
  GADD45A fold change vs vehicle control (+S9): 1.4 fold change
GADD45A; 3 mM
  GADD45A fold change vs vehicle control (+S9): 1.4 fold change
GADD45A; 5 mM
  GADD45A fold change vs vehicle control (+S9): 2.4 fold change
TK6 cells [7]; 2 mM
  % Relative Survival: 80.06%
TK6 cells [7]; 3 mM
  % Relative Survival: 64.52%
TK6 cells [7]; 5 mM
  % Relative Survival: 48.45%
TK6 cells [7]; 2% Aroclor‐induced S9, data not shown
  effect on RS, range finder: did not cause a decline in RS
Mammalian cells
  chromosomal aberrations: causes chromosomal aberrations
